Measured values as given in patent US20110091484A1, “Compositions and methods for preventing or treating a viral infection” (priority 2005, published 2011).
Where “and” joins values, the source holds several entries; their conditions need not be identical. Equal values may be shown once.

Tested on: WR vaccinia virus-infected 143B cell cultures
Format: in vivo, mice

## CC(C)Cn1cnc2c(N)nc3ccccc3c21 [Imiquimod]
  % Inhibition (plaque inhibition): 13% and 22.6%
